This is an account of results in patent publication US12491188B2, “Small molecule PARG inhibitors and methods of use thereof” (Board of Regents, The University of Texas System, priority 2019, dated 2025).

As a reminder, the IC50 is the midpoint of a concentration-inhibition curve.

In test [1] the target is rat PARG (Rattus norvegicus (Rat), UniProt Q9QYM2). Nature of the test: High-throughput screening with the TR-FRET PAR turnover assay. Type of test: biochemical. As to conditions: 6.7 μM compound; 12.5 nM and 25 nM rat PARG. The method, then:
The NCI Diversity Set II library (1,990 compounds) was screened against rat PARG then human PARG was used to validate and optimize PARG inhibitors. The accuracy of the screen was determined by the calculated Z-scores of control reactions, which were between 0.6 and 0.8 throughout the plates, indicative of high reproducibility (FIG. 2a). […] The rate of TR-FRET signal loss in the presence of each candidate inhibitor was compared to that of control reactions containing DMSO only (FIG. 2b). Initially, 104 compounds were selected that inhibited PARG enzymatic activity at both enzyme concentrations. Thirty-nine of these compounds were discarded as they altered fluorescence intensity of donor or acceptor (F520 and F495) by >40% at the first time point. […] For the selected compounds, gel-based assays were performed to directly monitor inhibition of PARP1 dePARylation by PARG (FIG. 2c).
TR-FRET PAR turnover assay. For a high-throughput screening (HTS) of PARG inhibitors, a high-throughput PARG activity assay was developed using the TR-FRET system. Briefly, the fluorescein molecule (FITC) was enzymatically incorporated into PARP1 in a reaction containing PARP1C (2 μM), the PARP1 DBD (2 μM), a 24 mer nicked DNA oligo (2 μM), and a mixture of unlabeled NAD^+ (Sigma) and FITC-NAD^+ (Trevigen) substrates (total NAD+concentration of 100 μM).
After incubation for 1 hr at 37° C., PARylated PARP1 was desalted using a PD-10 desalting column (GE healthcare) in a buffer containing 25 mM Tris-HCl (pH 7.5), 50 mM NaCl, and 0.01% NP-40 and used as the FRET acceptor. The biotin-tagged BRCT1 domain of XRCC1 (BRCT1, 5 nM) was conjugated with an equimolar concentration of Tb^3+-chelated streptavidin (Life Technologies) in TR-FRET assay buffer (FRET donor). […] The reaction was started by the addition of the FRET pair of FITC-labeled PARP1 (42 nM) and Tb^3+-BRCT1 (5 nM). The TR-FRET signal was subsequently monitored for 60 min.
High-throughput screening of PARG inhibitors. Small molecule inhibitors of PARG were identified by high-throughput screening (HTS) using the TR-FRET PAR turnover assay. Compounds (final concentration of 6.7 μM) from the NCI Diversity Set II library (1,990 compounds) were predispensed into black polystyrene 384-well plates (Corning) using a Hummingbird liquid handler (Digilab). Then, 10 μL of rat PARG^385-972 (12.5 nM and 25 nM) was subsequently dispensed into plates using a multi-drop combi nL reagent dispenser (Thermo Scientific), and incubated with compounds for 1 hr at 4° C. The reaction was initiated by the addition of 20 μl of the premixed FRET pair of FITC-labeled PARP1 (42 nM) and Tb^3+-BRCT1 (5 nM), and the TR-FRET signal was monitored every four minutes for 40 min (11 data points). Hits were selected by visually comparing the rate of the TR-FRET signal decrease in each well to that of negative control reactions containing DMSO (FIG. 1b and see Text for details). The HTS was performed at the High-Throughput Screening Core (HTSC) at Washington University School of Medicine.
For orientation: Time-resolved FRET reads energy transfer from a long-lived donor to a nearby acceptor.

Test [2] concerns PARG. As to conditions: Falsig et al., 2004; read-out: IC50 of PARG inhibition; cited from earlier work.
For test [3], the target named is human PARG (Homo sapiens (Human), UniProt Q86W56). Nature of the test: Gel-based PARG activity assay. Type of test: biochemical. The method, then: FIGS. 9a & 9b show structure-activity relationships (SAR) of compounds from five main chemotypes. (FIG. 9a) A total of 34 representative HTS hits and commercially available analogues from each chemotype (FIG. 7 and FIG. 29) were analyzed using the gel-based PARG activity assay. This gel-based assay directly monitors the change of PARylation status of PARP1 as a substrate of PARG. […] The reaction was quenched after a 30 min incubation at room temperature by adding SDS-PAGE sample buffer. PARylated PARP1C runs as a smear on SDS-PAGE that is reduced to a single band by PARG treatment. […] (FIG. 9b) Quantification of the dose-response PARG inhibition by JA2-3 using the gel-based PARG activity assay. hPARG (1 nM) was preincubated with increasing concentrations (0.032-1 μM) of JA2-3 for 1 hr at room temperature before PARylated PARP1C (500 nM) was added. The reaction was quenched after a 30 min incubation at room temperature. PARylated PARP1C migrates slower than unmodified PARP1C and was quantified using ImageJ. To determine the IC50 value, the dose-response data were plotted as a function of JA2-3 concentration and fitted to the four-parameter logistic equation using SigmaPlot. The rate of the PARG-dependent signal loss in the TR-FRET PAR turnover assay is not equivalent to the steady-state rate of PAR turnover, because the TR-FRET assay can't detect signal loss until the length of PAR chains become shorter than 7 ADP-ribose units. Therefore, the gel-based PARG activity assay to accurately determine the IC50 values throughout the present disclosure.
Gel-based PARG activity assay. PARP1C (2 μM) is enzymatically auto-modified in a reaction containing the PARP1 DBD (2 μM), a 24 mer nicked DNA oligo (2 μM), and NAD+(300 μM) for 1 hr at 37° C., as described previously (Kim et al., 2012). Human PARG^389-976 (1 nM) was pre-incubated with compounds for 1 hr at room temperature. The reaction was initiated by addition of PARylated PARP1 (final concentration of 500 nM) and quenched after 30 min incubation at room temperature by adding SDS-PAGE sample buffer. The gel was visualized by sypro-ruby staining (Kim et al., 2012) and the retained PARylated PARP1C species were quantified using ImageJ (Schneider et al., 2012).
PARylated PARP1C that migrates slower than unmodified PARP1C was quantified. […] The IC50 values were determined by fitting the dose-response data for each compound to a four-parameter logistic equation using SigmaPlot (Systat Software Inc.).
To test specificity of JA2131, human PARG^389-976 (1 nM) was pre-incubated with JA2131 (5, 10, and 20 μM) in the presence and absence of 0.1% Triton-X 100 or 0.1 mg/ml BSA for 1 hr at room temperature. The reaction was initiated, quenched, visualized, and quantified as described above.

Where [4] appears, read: Table 1, PARG inhibition, read-out: IC50.
[5] abbreviates: hPARG 1 nM, PARylated PARP1C 500 nM.
Where [6] appears, read: hPARG 1 nM, PARylated PARP1C 500 nM, read-out: IC50 of PARG inhibition.

The structures appear in SMILES notation. Several values for one entry are separate records, joined by “and”; a condition that tells them apart may be missing. Equal entries are not always repeated. Where two headings read alike, the source gives them in different places. Some results are limits rather than exact numbers.

Chain of human PARG (Q86W56 389-976): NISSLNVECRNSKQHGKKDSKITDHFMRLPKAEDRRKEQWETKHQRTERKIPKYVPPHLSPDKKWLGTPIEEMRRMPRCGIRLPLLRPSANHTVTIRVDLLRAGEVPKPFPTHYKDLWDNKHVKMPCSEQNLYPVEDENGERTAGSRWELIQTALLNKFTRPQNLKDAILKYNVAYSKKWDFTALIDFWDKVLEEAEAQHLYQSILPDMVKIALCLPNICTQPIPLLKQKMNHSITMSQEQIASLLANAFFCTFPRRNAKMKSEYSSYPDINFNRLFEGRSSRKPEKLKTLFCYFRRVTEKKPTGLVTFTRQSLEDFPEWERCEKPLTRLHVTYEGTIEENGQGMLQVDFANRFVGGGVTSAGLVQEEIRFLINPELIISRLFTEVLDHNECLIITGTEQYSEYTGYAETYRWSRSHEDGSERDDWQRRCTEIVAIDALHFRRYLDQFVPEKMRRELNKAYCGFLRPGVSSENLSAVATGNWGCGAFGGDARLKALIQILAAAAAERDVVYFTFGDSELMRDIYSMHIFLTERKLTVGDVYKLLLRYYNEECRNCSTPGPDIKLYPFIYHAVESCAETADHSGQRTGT
Chain of rat PARG (Q9QYM2 385-972): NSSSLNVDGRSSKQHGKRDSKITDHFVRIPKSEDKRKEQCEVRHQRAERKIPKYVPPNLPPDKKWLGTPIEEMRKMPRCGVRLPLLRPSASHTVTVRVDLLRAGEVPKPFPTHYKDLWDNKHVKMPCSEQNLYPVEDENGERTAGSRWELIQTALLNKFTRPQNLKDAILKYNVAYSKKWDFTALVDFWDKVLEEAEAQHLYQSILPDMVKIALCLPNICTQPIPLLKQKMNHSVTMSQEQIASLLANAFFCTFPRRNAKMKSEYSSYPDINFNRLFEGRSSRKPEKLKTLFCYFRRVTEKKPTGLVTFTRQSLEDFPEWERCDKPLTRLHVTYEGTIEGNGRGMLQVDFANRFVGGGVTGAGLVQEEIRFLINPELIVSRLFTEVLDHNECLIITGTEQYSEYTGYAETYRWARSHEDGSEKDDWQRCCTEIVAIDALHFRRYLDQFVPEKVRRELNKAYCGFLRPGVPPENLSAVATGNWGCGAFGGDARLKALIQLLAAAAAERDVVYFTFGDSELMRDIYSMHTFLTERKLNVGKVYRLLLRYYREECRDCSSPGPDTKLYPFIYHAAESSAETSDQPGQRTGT

As to `Cc1cc(O)c(-c2cc(O)c(C)cc2O)cc1O` [Compound 2805], in test [1], the “~100% PARG inhibition at both 12.5 nM and 25 nM” value (from here on “~100% PARG inhibition”) is on record as “Yes”.

For `CCC(=O)OCN1C(=O)C=CC1=O` [Compound 19630], the “~100% PARG inhibition” value in test [1] is “Yes”.

For the compound `Cc1cc(N)c2cc(OCCOc3ccc4nc(C)cc(N)c4c3)ccc2n1` [Compound 22907], the “~100% PARG inhibition” value in test [1] is on record as “Yes”.

Take `O=C1C(Cl)=C(Nc2ccc(S(=O)(=O)Nc3ccccn3)cc2)C(=O)c2ccccc21` [Compound 45382]: the “~100% PARG inhibition” value in test [1] is “Yes”.

As to `O=C1C=CC(=Nc2cccc3c(N=C4C=CC(=O)O4)cccc23)O1` [Compound 69575], in test [1], the “~100% PARG inhibition” value is “Yes”.

With `O=S(=O)(O)c1cc(O)c2c(N=Cc3ccccc3O)cc(S(=O)(=O)O)cc2c1` [Compound 88947], the “~100% PARG inhibition” value in test [1] is on record as “Yes”.

Regarding `O=c1[nH][nH]c(=S)c(=O)[nH]1` [Compound 107684], the “~100% PARG inhibition” value in test [1] is “Yes”.

Take `Cc1ccc(C2=C(Cl)C(=O)C(c3ccc(C)cc3)=C(Cl)C2=O)cc1` [Compound 121838]: the “~100% PARG inhibition” value in test [1] is listed as “Yes”.

As to `O=[N+]([O-])c1ccc(S(=O)(=O)Cc2ccccc2)c2nonc12` [Compound 228148], in test [1], the “~100% PARG inhibition” value was “Yes”.

As for `FC(F)(F)c1nc2ccc(SSc3ccc4nc(C(F)(F)F)[nH]c4c3)cc2[nH]1` [Compound 659162], the “~100% PARG inhibition” value in test [1] is reported as “Yes”.

In the case of `O=C(OC[C@H]1O[C@@H](OC(=O)c2cc(O)c(O)c(OC(=O)c3cc(O)c(O)c(O)c3)c2)[C@H](OC(=O)c2cc(O)c(O)c(OC(=O)c3cc(O)c(O)c(O)c3)c2)[C@@H](OC(=O)c2cc(O)c(O)c(OC(=O)c3cc(O)c(O)c(O)c3)c2)[C@@H]1OC(=O)c1cc(O)c(O)c(OC(=O)c2cc(O)c(O)c(O)c2)c1)c1cc(O)c(O)c(OC(=O)c2cc(O)c(O)c(O)c2)c1` [Gallotannin], the IC50 in test [2] is less than 5000 nM.

In the case of `Cn1c(=O)c2[nH]c(CCCC(=O)O)nc2n(C)c1=O` [JA2-2], in test [3] (setting [4]), the concentration for half-maximal inhibition (IC50) was more than 100000 nM.

As for `O=c1[nH]c2[nH]c(=S)[nH]c(=S)c2[nH]1` [JA2-3], the “~100% PARG inhibition” value in test [1] is recorded as “Yes”. Besides, the results for the IC50 in test [3] (setting [4]) and in test [3] (setting [6]) were 100 nM and 100 to 1000 nM, respectively. Moreover, the “IC50 of PARG inhibition” value in test [3] (setting [5]) is given as “sub-micromolar”.

As for `Cn1c(=S)[nH]c2nc(SCCN3CCCC3)[nH]c2c1=O` [JA2-4], the IC50 in test [3] (setting [4]) was 900 nM; in test [3] (setting [6]) it was 100 to 1000 nM and 900 nM. In addition, the “IC50 of PARG inhibition” value in test [3] (setting [5]) is “sub-micromolar”.

For `Cn1c(=O)c2[nH]c(SCCN3CCOCC3)nc2n(C)c1=S` [JA2-5], in test [1], the “~100% PARG inhibition” value is “Yes”. For the same compound, the IC50 is 1000 nM in test [3] (setting [4]) and 100 to 1000 nM in test [3] (setting [6]). Also, the “IC50 of PARG inhibition” value in test [3] (setting [5]) was “sub-micromolar”.

`Cn1c(=O)c2c(ncn2CCCC(=O)O)n(C)c1=O` [JA2-9]: in test [3] (setting [4]), the IC50 is more than 100000 nM.

On to `Cn1c(=O)[nH]c2nc(SCCN3CCOCC3)[nH]c2c1=O` [JA2120], for which the IC50 in test [3] (setting [4]) and in test [3] (setting [6]) was 25700 nM each time.

In the case of `Cn1c(=O)c2[nH]c(SCC(=O)OC(C)(C)C)nc2n(C)c1=O` [LPF-I-27-1], the IC50 in test [3] (setting [4]) was more than 25000 nM.

Take `CCOC(=O)CSc1nc2c([nH]1)c(=O)n(C)c(=O)n2C` [LPF-I-35-1]: the IC50 in test [3] (setting [4]) was more than 25000 nM.

For `Cn1c(=O)c2[nH]c(SCc3ccccc3)nc2n(C)c1=O` [LPF-I-51-1], in test [3] (setting [4]), the half-inhibitory concentration (IC50) was more than 25000 nM.

With `Cn1c(=O)c2[nH]c(SCc3ccc(F)cc3)nc2n(C)c1=O` [LPF-I-53-1], in test [3] (setting [4]), the IC50 was determined as 65000 nM.

Consider `Cc1ccc(CSc2nc3c([nH]2)c(=O)n(C)c(=O)n3C)cc1` [LPF-I-64-1], for which the IC50 in test [3] (setting [4]) is more than 25000 nM.

Turning to `Cn1c(=O)c2[nH]c(SCc3c(Cl)cccc3Cl)nc2n(C)c1=O` [LPF-I-68-1], the IC50 in test [3] (setting [4]) is more than 25000 nM.

As for `Cn1c(=O)c2[nH]c(SCCN3C(=O)c4ccccc4C3=O)nc2n(C)c1=O` [LPF-I-81-1], in test [3] (setting [4]), the half-inhibitory concentration (IC50) is more than 25000 nM.

On to `CCOC(=O)CCSc1nc2c([nH]1)c(=O)n(C)c(=O)n2C` [LPF-I-83-1], for which the IC50 in test [3] (setting [4]) was more than 25000 nM.

Take `Cn1c(=S)c2[nH]c(SCCN3CCOCC3)nc2n(C)c1=O` [LPF-I-146-1]: the concentration for half-maximal inhibition (IC50) in test [3] (setting [4]) was 400 nM.
